Test results as given in patent US20140287048A1, “PASTE COMPRISING NON-STEROIDAL ANTI-INFLAMMATORY DRUG” (priority 2011, published 2014).

Assay: in vivo
Conditions: po

bioavailability: ~98%
SMILES: Cc1cnc(NC(=O)C2=C(O)c3ccccc3S(=O)(=O)N2C)s1 [meloxicam]
